This note sets out measurements from US6642355B2, “Endothelin-antagonizing peptide” (priority 1991, dated 2003).

Bridge positions count the residues as written; N and C are the ends. Peptide text beside a SMILES is read from it.

What is called IC50 is the point on the concentration scale where inhibition reaches its midpoint.

In the first test the target is T1, endothelin receptor (Bos taurus, UniProt P28088).
T1 construct: from tissue; host or cells: bovine cerebellar membrane fraction
T1 sequence (P28088 27-441): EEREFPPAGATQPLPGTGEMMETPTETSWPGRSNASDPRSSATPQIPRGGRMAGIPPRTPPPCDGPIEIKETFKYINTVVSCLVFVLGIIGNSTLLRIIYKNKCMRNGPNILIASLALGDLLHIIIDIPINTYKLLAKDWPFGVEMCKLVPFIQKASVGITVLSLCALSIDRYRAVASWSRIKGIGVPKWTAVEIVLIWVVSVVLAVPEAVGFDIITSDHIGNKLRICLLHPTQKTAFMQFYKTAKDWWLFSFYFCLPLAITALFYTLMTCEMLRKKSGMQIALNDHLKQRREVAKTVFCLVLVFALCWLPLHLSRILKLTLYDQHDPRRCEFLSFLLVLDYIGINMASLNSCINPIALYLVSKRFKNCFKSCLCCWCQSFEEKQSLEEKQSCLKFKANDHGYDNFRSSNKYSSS
The experiment in a line: Endothelin receptor-antagonizing effect: 125I-endothelin-1 binding to bovine cerebellar tissue membrane fraction.
Conditions: not given
Compound `C[C@@H]1NC(=O)[C@H]([C@@H](C)O)NC(=O)CNC(=O)[C@H](Cc2c[nH]cn2)NC(=O)[C@H](Cc2c[nH]c3ccccc23)NC(=O)[C@H](CC(N)=O)NC(=O)[C@@H](N)CSSC[C@@H](C(=O)N[C@@H](Cc2c[nH]c3ccccc23)C(=O)N[C@@H](Cc2ccccc2)C(=O)N[C@@H](Cc2ccccc2)C(=O)N[C@@H](CC(N)=O)C(=O)N[C@@H](Cc2ccc(O)cc2)C(=O)N[C@@H](Cc2ccc(O)cc2)C(=O)N[C@@H](Cc2c[nH]c3ccccc23)C(=O)O)NC(=O)[C@@H]2CCCN2C1=O` [Compound I-7] (H-CNWHGTAPCWFFNYYW-OH; disulfide 1-9) displayed an IC50 greater than 5000 nM.
Still for that read-out and setting: the result for `CC(=O)N[C@H]1CSSC[C@@H](C(=O)N[C@@H](Cc2c[nH]c3ccccc23)C(=O)N[C@@H](Cc2ccccc2)C(=O)N[C@@H](Cc2ccccc2)C(=O)N[C@@H](CC(N)=O)C(=O)N[C@@H](Cc2ccc(O)cc2)C(=O)N[C@@H](Cc2ccc(O)cc2)C(=O)N[C@@H](Cc2c[nH]c3ccccc23)C(=O)O)NC(=O)[C@@H]2CCCN2C(=O)[C@H](C)NC(=O)[C@H]([C@@H](C)O)NC(=O)CNC(=O)[C@H](Cc2c[nH]cn2)NC(=O)[C@H](Cc2c[nH]c3ccccc23)NC(=O)[C@H](CC(N)=O)NC1=O` [Compound I-8] (Ac-CNWHGTAPCWFFNYYW-OH; disulfide 1-9) reads greater than 5000 nM; that for `C[C@@H]1NC(=O)[C@H]([C@@H](C)O)NC(=O)CNC(=O)[C@H](Cc2c[nH]cn2)NC(=O)[C@H](Cc2c[nH]c3ccccc23)NC(=O)[C@H](CC(N)=O)NC(=O)CNC(=O)C[C@@H](C(=O)O)NC(=O)[C@@H]2CCCN2C1=O` [Compound I-14] (GNWHGTAPD-OH; lactam N-9), greater than 1000 nM.
The compound `C[C@@H]1NC(=O)[C@H]([C@@H](C)O)NC(=O)CNC(=O)[C@H](Cc2c[nH]cn2)NC(=O)[C@H](Cc2c[nH]c3ccccc23)NC(=O)[C@H](CC(N)=O)NC(=O)CNC(=O)C[C@@H](C(=O)N[C@@H](Cc2c[nH]c3ccccc23)C(=O)O)NC(=O)[C@@H]2CCCN2C1=O` [Compound I-15] (GNWHGTAPDW-OH; lactam N-9) displayed an IC50 greater than 900 nM.
`C[C@@H]1NC(=O)[C@H]([C@@H](C)O)NC(=O)CNC(=O)[C@H](Cc2c[nH]cn2)NC(=O)[C@H](Cc2c[nH]c3ccccc23)NC(=O)[C@H](CC(N)=O)NC(=O)CNC(=O)C[C@@H](C(=O)N[C@@H](Cc2c[nH]c3ccccc23)C(=O)N[C@@H](Cc2ccccc2)C(=O)N[C@@H](Cc2ccccc2)C(=O)N[C@@H](CC(N)=O)C(=O)N[C@@H](Cc2ccc(O)cc2)C(=O)N[C@@H](Cc2ccc(O)cc2)C(=O)N[C@@H](Cc2c[nH]c3ccccc23)C(=O)N[C@@H](CC(N)=O)C(=O)N[C@@H](Cc2ccc(O)cc2)C(=O)N[C@@H](Cc2ccc(O)cc2)C(=O)N[C@@H](Cc2c[nH]c3ccccc23)C(=O)O)NC(=O)[C@@H]2CCCN2C1=O` [Compound I-19] (GNWHGTAPDWFFNYYWNYYW-OH; lactam N-9) had an IC50 of 370 nM.
The compound `CC[C@H](C)[C@H](NC(=O)[C@H](Cc1c[nH]c2ccccc12)NC(=O)[C@@H]1CC(=O)NCC(=O)N[C@@H](CC(N)=O)C(=O)N[C@@H](Cc2c[nH]c3ccccc23)C(=O)N[C@@H](Cc2c[nH]cn2)C(=O)NCC(=O)N[C@@H]([C@@H](C)O)C(=O)N[C@@H](C)C(=O)N2CCC[C@H]2C(=O)N1)C(=O)N[C@H](C(=O)N[C@@H](Cc1c[nH]c2ccccc12)C(=O)O)[C@@H](C)CC` [Compound I-27] (GNWHGTAPDWIIW-OH; lactam N-9) registered an IC50 greater than 6000 nM.
For the compound `C[C@@H]1NC(=O)[C@H]([C@@H](C)O)NC(=O)CNC(=O)[C@H](Cc2c[nH]cn2)NC(=O)[C@H](Cc2c[nH]c3ccccc23)NC(=O)[C@H](CC(N)=O)NC(=O)CNC(=O)C[C@@H](C(=O)N[C@@H](Cc2c[nH]c3ccccc23)C(=O)N[C@@H](CC(N)=O)C(=O)N[C@@H](Cc2ccc(O)cc2)C(=O)N[C@@H](Cc2ccc(O)cc2)C(=O)N[C@@H](Cc2c[nH]c3ccccc23)C(=O)O)NC(=O)[C@@H]2CCCN2C1=O` [Compound I-32] (GNWHGTAPDWNYYW-OH; lactam N-9), the IC50 was greater than 570 nM.
`C[C@@H]1NC(=O)[C@H](C)NC(=O)[C@H]([C@@H](C)O)NC(=O)CNC(=O)[C@H](Cc2c[nH]cn2)NC(=O)[C@H](Cc2c[nH]c3ccccc23)NC(=O)[C@H](CC(N)=O)NC(=O)CNC(=O)C[C@@H](C(=O)N[C@@H](Cc2c[nH]c3ccccc23)C(=O)N[C@@H](Cc2ccccc2)C(=O)N[C@@H](Cc2ccccc2)C(=O)N[C@@H](CC(N)=O)C(=O)N[C@@H](Cc2ccc(O)cc2)C(=O)N[C@@H](Cc2ccc(O)cc2)C(=O)N[C@@H](Cc2c[nH]c3ccccc23)C(=O)O)NC1=O` [Compound I-36] (GNWHGTAADWFFNYYW-OH; lactam N-9) returned an IC50 greater than 570 nM.
The same measure, in the same setting: to `CC[C@H](C)[C@H](NC(=O)[C@@H](NC(=O)[C@H](CC(=O)O)NC(=O)[C@H](CCC(N)=O)NC(=O)[C@H](Cc1c[nH]cn1)NC(=O)[C@H](C)NC(=O)[C@H](Cc1ccccc1)NC(=O)[C@H](Cc1ccc(O)cc1)NC(=O)[C@H](CC(C)C)NC(=O)[C@H](Cc1c[nH]c2ccccc12)NC(=O)[C@H](CC(=O)O)NC(=O)[C@@H]1CCCN1C(=O)[C@H](C)NC(=O)[C@@H](NC(=O)CNC(=O)[C@H](Cc1c[nH]cn1)NC(=O)[C@H](Cc1c[nH]c2ccccc12)NC(=O)[C@H](CC(N)=O)NC(=O)CN)[C@@H](C)O)C(C)C)C(=O)N[C@@H](Cc1c[nH]c2ccccc12)C(=O)O` [Compound I-38] belongs 0.33 nM.

The test is the same for the next values; noted with them: bovine cerebellar tissue membrane fraction.
`CC[C@H](C)[C@H](NC(=O)[C@H](CC(=O)O)NC(=O)[C@H](CC(C)C)NC(=O)[C@H](Cc1c[nH]cn1)NC(=O)[C@H](C)NC(=O)[C@H](Cc1ccccc1)NC(=O)[C@H](Cc1ccc(O)cc1)NC(=O)[C@@H](NC(=O)[C@H](Cc1c[nH]c2ccccc12)NC(=O)[C@H](CC(=O)O)NC(=O)[C@@H]1CCCN1C(=O)[C@H](C)NC(=O)[C@@H](NC(=O)CNC(=O)[C@H](Cc1c[nH]cn1)NC(=O)[C@H](Cc1c[nH]c2ccccc12)NC(=O)[C@H](CC(N)=O)NC(=O)CN)[C@@H](C)O)C(C)C)C(=O)N[C@H](C(=O)N[C@@H](Cc1c[nH]c2ccccc12)C(=O)O)[C@@H](C)CC` [Compound I-26]: the IC50 was less than 0.13 nM.
Still for that read-out and setting: the result for `CC(C)[C@H](NC(=O)[C@H](Cc1c[nH]c2ccccc12)NC(=O)[C@@H]1CC(=O)NCC(=O)N[C@@H](CC(N)=O)C(=O)N[C@@H](Cc2c[nH]c3ccccc23)C(=O)N[C@@H](Cc2c[nH]cn2)C(=O)NCC(=O)N[C@@H]([C@@H](C)O)C(=O)N[C@@H](C)C(=O)N2CCC[C@H]2C(=O)N1)C(=O)N[C@@H](Cc1ccc(O)cc1)C(=O)N[C@@H](Cc1ccccc1)C(=O)N[C@@H](C)C(=O)N[C@@H](Cc1ccccc1)C(=O)N[C@@H](Cc1ccccc1)C(=O)N[C@@H](CC(N)=O)C(=O)N[C@@H](Cc1ccc(O)cc1)C(=O)N[C@@H](Cc1ccc(O)cc1)C(=O)N[C@@H](Cc1c[nH]c2ccccc12)C(=O)O` [Compound I-33] (GNWHGTAPDWVYFAFFNYYW-OH; lactam N-9) reads greater than 40 nM; that for `CC[C@H](C)[C@H](NC(=O)[C@H](CC(=O)O)NC(=O)[C@H](CC(C)C)NC(=O)[C@H](Cc1c[nH]cn1)NC(=O)[C@H](C)NC(=O)[C@H](Cc1c[nH]c2ccccc12)NC(=O)[C@@H]1CC(=O)NCC(=O)N[C@@H](CC(N)=O)C(=O)N[C@@H](Cc2c[nH]c3ccccc23)C(=O)N[C@@H](Cc2c[nH]cn2)C(=O)NCC(=O)N[C@@H]([C@@H](C)O)C(=O)N[C@@H](C)C(=O)N2CCC[C@H]2C(=O)N1)C(=O)N[C@H](C(=O)N[C@@H](Cc1c[nH]c2ccccc12)C(=O)O)[C@@H](C)CC` [Compound I-35] (GNWHGTAPDWAHLDIIW-OH; lactam N-9 (inferred); C-terminus assumed), greater than 51 nM.
The compound `CC[C@H](C)[C@H](NC(=O)[C@H](CC(=O)O)NC(=O)[C@H](CC(C)C)NC(=O)[C@H](Cc1c[nH]cn1)NC(=O)[C@H](C)NC(=O)[C@H](Cc1ccc(O)cc1)NC(=O)[C@H](Cc1ccc(O)cc1)NC(=O)[C@@H](NC(=O)[C@H](Cc1c[nH]c2ccccc12)NC(=O)[C@H](CC(=O)O)NC(=O)[C@@H]1CCCN1C(=O)[C@H](C)NC(=O)[C@@H](NC(=O)CNC(=O)[C@H](Cc1c[nH]cn1)NC(=O)[C@H](Cc1c[nH]c2ccccc12)NC(=O)[C@H](CC(N)=O)NC(=O)CN)[C@@H](C)O)C(C)C)C(=O)N[C@H](C(=O)N[C@@H](Cc1c[nH]c2ccccc12)C(=O)O)[C@@H](C)CC` [Compound I-37] yielded an IC50 of 0.83 nM.
`CC[C@H](C)[C@H](NC(=O)[C@H](CC(N)=O)NC(=O)[C@H](Cc1ccc(O)cc1)NC(=O)[C@H](Cc1ccc(O)cc1)NC(=O)[C@H](CC(N)=O)NC(=O)[C@H](Cc1ccccc1)NC(=O)[C@H](Cc1ccccc1)NC(=O)[C@H](Cc1c[nH]c2ccccc12)NC(=O)[C@@H]1CC(=O)NCC(=O)N[C@@H](CC(N)=O)C(=O)N[C@@H](Cc2c[nH]c3ccccc23)C(=O)N[C@@H](Cc2c[nH]cn2)C(=O)NCC(=O)N[C@@H]([C@@H](C)O)C(=O)N[C@@H](C)C(=O)N2CCC[C@H]2C(=O)N1)C(=O)N[C@H](C(=O)N[C@@H](Cc1c[nH]c2ccccc12)C(=O)O)[C@@H](C)CC` [Compound I-39] (GNWHGTAPDWFFNYYNIIW-OH; lactam N-9) gave an IC50 greater than 72 nM.
Still for that read-out and setting: to `CC[C@H](C)[C@H](NC(=O)[C@H](CC(=O)O)NC(=O)[C@H](CC(C)C)NC(=O)[C@H](Cc1c[nH]cn1)NC(=O)[C@H](C)NC(=O)[C@H](Cc1ccc(O)cc1)NC(=O)[C@H](Cc1ccc(O)cc1)NC(=O)[C@H](CC(N)=O)NC(=O)[C@H](Cc1ccccc1)NC(=O)[C@H](Cc1ccccc1)NC(=O)[C@H](Cc1c[nH]c2ccccc12)NC(=O)[C@@H]1CC(=O)NCC(=O)N[C@@H](CC(N)=O)C(=O)N[C@@H](Cc2c[nH]c3ccccc23)C(=O)N[C@@H](Cc2c[nH]cn2)C(=O)NCC(=O)N[C@@H]([C@@H](C)O)C(=O)N[C@@H](C)C(=O)N2CCC[C@H]2C(=O)N1)C(=O)N[C@H](C(=O)N[C@@H](Cc1c[nH]c2ccccc12)C(=O)O)[C@@H](C)CC` [Compound I-40] (GNWHGTAPDWFFNYYAHLDIIW-OH; lactam N-9 (inferred); C-terminus assumed) belongs greater than 45 nM.
